Experiments:
[1] = tested on: SK-N-DZ neuroblastoma cells; test: Clonogenic assay with cisplatin; type: cell-based, human; settings: 500 nM AOH1996, 18 hours
Description: FIGS. 3A-3D. Therapeutic properties of AOH1996. FIG. 3A: Normal cells (7SM0032) or cancer cells (SH-SY5Y and SK-N-BE(2)c) cells were fixed, stained with PI, and analyzed by flow cytometry following treatment with 500 nM AOH1996 for the indicated time. FIG. 3B: SK-N-DZ neuroblastoma cells and nonmalignant 7SM0032 stem cells were incubated with 500 nM AOH1996 for 24 h. Then, after being fixed on slides, cell apoptosis were analyzed by a TUNEL assay. Left: TMR fluorophore attached to the free ends of DNA indicates cells undergoing apoptosis. DAPI stained nuclei also shown. Right: Average abundance ±S.D. of apoptotic 7SM0032 (black histogram) and SK-N-DZ (grey histogram) cells relative to the total number of cells are shown in 5 randomly selected fields. FIG. 3C: Human SK-N-DZ neuroblastoma cells were treated with or without the indicated concentrations of cisplatin in the absence or presence of 500 nM of AOH1996 for 18 hours. […] The relative number of colonies determined in triplicates for each treatment condition were averaged and graphed ±SDs (*, P<0.01). […] Cell growth was measured as the percentage of cell confluence by imaging every 6 h for a total of 48 h.
Clonogenic Assay. […] The colonies were stained with 0.5% crystal violet and counted. Synergy between AOH1996 and cisplatin was evaluated using combination indices (Cl) based on the Bliss independence model [C]=(EA+EB−EA*EB)/EAB] […]

[2] = Oral pharmacokinetic study in mice; type: in vivo, ES1^e/SCID mice
Description: FIGS. 4A-4H. Pharmacokinetics and anti-tumor growth activity of AOH1996 in vivo. FIG. 4A: After oral administration, the plasma concentrations of AOH1996 from three male and three female ES1^e/SCID mice at the indicated time points were averaged and graphed ±S.D. The inset contains PK parameters determined by a standard noncompartmental method. FIG. 4B: A similar PK study of AOH1996 was performed in dogs. FIGS. 4C-4E: Mice bearing the xenograft tumors of neuroblastoma (FIG. 4C: SK-N-BE(2)c), breast cancer (FIG. 4D: MDA-MB-468), and small-cell lung cancer (FIG. 4E: H82) were given vehicle only (black) or 40 mg/kg of AOH1996 (grey) twice daily immediately after the first measurement. Tumor sizes were measured by a dial caliper each week. Tumor volumes (0.4×L×W^2) were averaged and graphed ±S.E. (*, P<0.01). FIG. 4F: Animal body weight was monitored throughout the studies as an indicator of toxicity. Shown is a typical study results from the study of the SK-N-BE(2)c tumor model described in (FIG. 4C). FIG. 4G: The levels of phosphor-Chk1 (pChk1) and γH2A.X in SK-N-BE(2)c derived tumor samples were analyzed by IHC. Shown are representative images taken from tumors treated by vehicle only or by 40 mg/kg AOH1996. FIG. 4H: ES1^e/SCID mice bearing SK-N-AS derived xenograft tumors were treated with either 80 mg/kg of AOH1996 (black, n=7) for 8 d beginning 8 d after tumor implantation, 15 mg/kg of CPT-11 (n=8) for 3 d beginning 12 d after tumor implantation, or both agents (combination, n=8) under the same dosages and schedules as they were dosed alone. Mice implanted with the same tumor and left untreated were used as control (n=8). Shown are the survival graphs. The p values determined by the Log-rank (Mantel-Cox) test between combination treatment and each of the control groups are p=0.0003 (Combination vs. NoRx), p=0.005 (Combination vs. AOH1996 alone), and p=0.024 (Combination vs. CPT-11 alone).
The improved stability of AOH1996 (FIGS. 12A-12E) translated into a significant benefit in the pharmacokinetics (PK).
Pharmacokinetic (PK) study in animals. An oral dosing solution was prepared by dissolving AOH1996 (40 mg) in a mixture of Kolliphor EL (840 mg) and Poloxamer P124 (120 mg). For the mouse study, blood samples were collected from ES1^e/SCID mice (3 male and 3 female) per dosing group by cardiac puncture at 10, 20, and 30 min and 1, 2, 4, 6, and 24 h after dosing. For the dog study, blood samples were collected from 3 male beagle dogs per dosing group by venipuncture of peripheral veins at 5, 15, and 30 min and 1, 2, 4, 8, 12, and 24 h after dosing. Following removal of blood cells, plasma concentration of AOH1996 was determined by LC-MS/MS as described (Gu et al., 2018). Oral PK was determined using standard non-compartmental methods.

COc1cccc(Oc2ccccc2NC(=O)CNC(=O)c2cccc3ccccc23)c1 [AOH1996, N-(2-((2-(3-methoxyphenoxy)phenyl)amino)-2-oxoethyl)-1-naphthamide]
sensitivity to cisplatin (colony formation) [1]: increased the sensitivity of cancer cells to genotoxic agents, including cisplatin | half-life ([2]; 40 mg/kg, mice): 4.33 h | increase in area under curve (AUC) vs AOH1160 ([2]; 40 mg/kg, mice): ~4% | increase in half-life vs AOH1160 ([2]; 40 mg/kg, mice): ~27% | increase in peak concentration (Cmax) vs AOH1160 ([2]; 40 mg/kg, mice): ~40% | absorption into circulation ([2]; animals, data not shown): ~90%

— patent US20250171404A1, “PCNA INHIBITORS AND USES THEREOF” (CITY OF HOPE, priority 2022, published 2025)
